Like-named read-outs stand apart in the source and are kept apart here.
How the values were obtained:
H1299 p53 Y220C = test: Cell Proliferation Assay (CellTiter-Glo, CTG), H1299 p53 Y220C (NClH1299-inducible p53 Y220C); type: cell-based; settings: Homo sapiens, NCI-H1299, 120 h, NClH1299-inducible p53 Y220C cells, 5 days
Method: Inducible p53 Y220C and R273H constructs (Tet-One inducible expression system; Takara) were stably expressed in NClH1299 cells by lentiviral transduction. NUGC3, A549, BxPC3, T3M4, HuH7, HCC2935, MFE296, NClH1299, NClH1299-inducible p53 Y220C, and NClH1299-inducible p53 R273H cell lines were used for cell proliferation assay. 250-500 cells were seeded in each well of 384 plate and then compounds were dispensed into each well using Echo or Tecan. After 5 days of incubation, equal volume of CellTiter-Glo reagent (G7570; Promega) was added into each well and the plate was incubated at room temperature for 10 minutes with shaking. The luminescent signal was measured by PheraStar microplate reader and IC50 was calculated.

p53 Y220C = p53 Y220C (Homo sapiens, UniProt P04637, Y220C); test: Luciferase Reporter Assay (Luc), p53 response element, NClH1299 cells with inducible p53 Y220C; type: cell-based; settings: 6 hour; for AC50: read-out: Luc P53 Y220C AC50
Method: Luciferase Reporter Assay Protocol
The cells were then used for p53 reporter assay. 5,000 cells were seeded in each well of 384 plate and cultured in 0.5 ug/mL doxycycline (D3072; Sigma) containing medium for 24 hours before compound treatment. After 6 hour of compound treatment, equal volume of One-Glo reagent (E6110; Promega) was added to each well and the plate was incubated for 5 minutes with shaking at room temperature. The luciferase activity was immediately measured with PheraStar microplate reader.

[1] = biological target: T1, p53 Y220C mutant protein (amino acid residues 94-293) (Homo sapiens, UniProt P04637, Y220C); test: Surface Plasmon Resonance (SPR) assay, Kd_kinetic; type: binding; settings: SPR, p53 Y220C, read-out: SPR P53 Y220C KD kinetic
T1 construct: p53 Y220C mutant protein (amino acid residues 94-293)
Method: Surface Plasmon Resonance (SPR) Assay Protocol
SPR experiments were performed on a Biacore 8K instrument. […] The running buffer contained 50 mM Tris, pH 7.5, 100 mM NaCl, 1 mM DTT, 0.01% Brij35, 0.05% Tween-20 and 1% DMSO. The assay temperature was maintained at 16 or 20 °C and data were fit into the 1:1 binding model using the Biacore Insight Evaluation software.

[2] = Emax, luciferase reporter, NClH1299 inducible p53 Y220C
[3] = AC50, NClH1299 cells with inducible p53 Y220C
[4] = Emax, NClH1299 cells with inducible p53 Y220C, 10 uM tool compound as positive control
[5] = AC50, luciferase reporter, NClH1299 inducible p53 Y220C

T1 sequence (P04637 94-293, stated change not applied): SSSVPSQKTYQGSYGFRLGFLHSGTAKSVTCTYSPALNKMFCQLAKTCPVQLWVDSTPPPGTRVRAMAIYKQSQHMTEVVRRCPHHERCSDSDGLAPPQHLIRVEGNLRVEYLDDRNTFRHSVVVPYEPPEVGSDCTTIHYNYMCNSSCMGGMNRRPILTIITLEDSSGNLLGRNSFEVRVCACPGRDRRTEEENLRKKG

Compound | IC50 (H1299 p53 Y220C; CellTiter-Glo) [nM] | Emax (p53 Y220C; [2]) [%] | AC50 (p53 Y220C; [3]) [nM] | Emax (p53 Y220C; [4]) [%] | Kd [1] [nM] | AC50 (p53 Y220C; [5]) [nM] | other results
CNC(=O)c1ccc(NCC#Cc2nc3c(N[C@@H]4C[C@@H]5COC[C@@H](N5)[C@@H]4F)cccn3c2SC(F)(F)F)c(OC)c1 (relative stereo) [Example 329] | < 750 | 80 to 90 | – | – | – | – | –
[2H]C(C)(O)CNC(=O)c1ccc(NCC#Cc2cc3c(N[C@@H]4CCN(C)C[C@@H]4F)cccn3c2SC(F)(F)F)c(OC)c1 (single isomer, unassigned) [Example 487, 4-{[3-(8-{[(3S,4R)-3-fluoro-1-methylpiperidin-4-yl]amino}-3-[(trifluoromethyl)sulfanyl]indolizin-2-yl)prop-2-yn-1-yl]amino}-N-[(2R*)-2-hydroxy(2-^2H)propyl]-3-methoxybenzamide] | – | – | < 750 | > 90 | < 10 | – | IC50 (H1299 p53 Y220C): < 750 nM
CNC(=O)c1ccc(NCC#Cc2nc3c(N[C@@H]4CCN(C)C[C@@H]4F)cccn3c2C(F)(F)C(F)(F)F)c(OC)c1 [Example 30, 4-{[3-(8-{[(3S,4R)-3-fluoro-1-methylpiperidin-4-yl]amino}-3-(1,1,2,2,2-pentafluoroethyl)imidazo[1,2-a]pyridin-2-yl)prop-2-yn-1-yl]amino}-3-methoxy-N-methylbenzamide] | – | – | – | – | – | – | Emax (p53 Y220C; luciferase reporter, NClH1299 inducible p53 Y220C, 10 uM tool compound as positive control): > 90%; AC50 (p53 Y220C; luciferase reporter, NClH1299 inducible p53 Y220C): > 3000 nM; Kd ([1]; kinetic KD): 10 to 100 nM
COc1cc2c(cc1NCC#Cc1nc3c(N[C@@H]4CCN(C)C[C@@H]4F)cccn3c1CC(F)(F)F)CNC2=O [Example 95, 5-{[3-(8-{[(3S,4R)-3-fluoro-1-methylpiperidin-4-yl]amino}-3-(2,2,2-trifluoroethyl)imidazo[1,2-a]pyridin-2-yl)prop-2-yn-1-yl]amino}-6-methoxy-2,3-dihydroisoindol-1-one] | – | – | – | – | – | – | Kd ([1]; kinetic KD): < 10 nM
COc1cc(C(=O)NCC2CN(C)C2)ccc1NCC#Cc1nc2c(N[C@@H]3CCOC[C@@H]3F)cccn2c1SC(F)(F)F [Example 227] | > 3000 | 70 to 80 | – | – | < 10 | > 3000 | –
CNC(=O)c1ccc(OCCN(C)C)c(NCC#Cc2nc3c(N[C@@H]4CCOC[C@@H]4F)cccn3c2SC(F)(F)F)c1 [Example 229] | 750 to 1500 | 70 to 80 | – | – | < 10 | 750 to 1500 | –
CNC(=O)c1cc(NCC#Cc2nn3c(N[C@@H]4CCN(C)C[C@@H]4F)cccc3c2SC(F)(F)F)c(OC)cn1 [Example 271] | < 750 | 80 to 90 | – | – | < 10 | < 750 | –
CNC(=O)c1ccc(NCC#Cc2nc3c(N[C@H]4C[C@H]5COC[C@H](N5)[C@H]4F)cccn3c2SC(F)(F)F)c(OC)c1 [Example 281] | 1500 to 3000 | 80 to 90 | – | – | – | – | –
CNC(=O)c1cc(NCC#Cc2cc3c(N[C@@H]4CCN(C)C[C@@H]4F)cccn3c2SC(F)(F)F)n2ncnc2c1 [Example 361] | > 3000 | < 70 | – | – | – | > 3000 | –
COc1cc(S(C)(=N)=O)ccc1NCC#Cc1cc2c(N[C@@H]3CCN(C)C[C@@H]3F)cccn2c1SC(F)(F)F (some centres unmarked) [Example 374] | < 750 | 80 to 90 | – | – | < 10 | < 750 | –
CNC(=O)c1ccc(NCC#Cc2cc3c(N[C@@H]4CCN(C)C[C@@H]4F)cccn3c2SC(F)(F)F)c(O[C@H]2C[C@H](O)C2)c1 [Example 398] | – | 80 to 90 | – | – | < 10 | < 750 | –
C[C@H](O)CNC(=O)c1ccc(OC2COC2)c(NCC#Cc2cc3c(N[C@@H]4CCN(C)C[C@@H]4F)cccn3c2SC(F)(F)F)c1 [Example 400] | < 750 | 80 to 90 | – | – | < 10 | < 750 | –
[2H]C([2H])([2H])Oc1cc(S(C)(=O)=O)ccc1NCC#Cc1cc2c(N[C@@H]3CCN(C(F)(F)F)C[C@@H]3F)cccn2c1SC(F)(F)F [Example 412] | – | > 90 | – | – | < 10 | < 750 | –
CNC(=O)c1ccc(O[C@H]2C[C@@H](O)C2)c(NCC#Cc2cc3c(N[C@@H]4CCN(C)C[C@@H]4F)cccn3c2SC(F)(F)F)c1 [Example 413, 3-{[3-(8-{[(3S,4R)-3-fluoro-1-methylpiperidin-4-yl]amino}-3-[(trifluoromethyl)sulfanyl]indolizin-2-yl)prop-2-yn-1-yl]amino}-N-methyl-4-[(1s,3s)-3-hydroxycyclobutoxy]benzamide] | < 750 | > 90 | – | – | < 10 | < 750 | –
[2H]C([2H])([2H])Oc1cc(S(C)(=O)=O)ccc1NCC#Cc1nc2c(N[C@@H]3CCN(C)C[C@@H]3C)cccn2c1SC(F)(F)F [Example 454] | – | – | < 750 | > 90 | < 10 | – | –
[2H]C([2H])([2H])Oc1cc(S(C)(=O)=O)ccc1NCC#Cc1nn2c(N[C@@H]3CCN(C)C[C@@H]3F)cccc2c1SC(F)(F)F [Example 461] | – | – | < 750 | > 90 | < 10 | – | –
CNC(=O)c1ccc(OCC2(O)CC2)c(NCC#Cc2cc3c(N[C@@H]4CCN(C)C[C@@H]4F)cccn3c2SC(F)(F)F)c1 [Example 467] | – | – | < 750 | > 90 | < 10 | – | IC50 (H1299 p53 Y220C): < 750 nM
CNC(=O)c1ccc(NCC#Cc2cc3c(N[C@@H]4CCN(C)C[C@@H]4F)cccn3c2SC(F)(F)F)c(O[C@H]2C[C@@H](O)C2)c1 [Example 474] | – | – | < 750 | > 90 | < 10 | – | –
[2H]C([2H])([2H])Oc1cc(S(C)(=O)=O)ccc1NCC#Cc1cc2c(N[C@@H]3CCN(C)C[C@@H]3F)cccn2c1SC(F)(F)F [Example 485] | – | – | < 750 | > 90 | < 10 | – | –
[2H]C([2H])([2H])Oc1cc(S(C)(=O)=O)ccc1NCC#Cc1nc2c(N[C@@H]3CCN(C)C[C@@H]3F)nccn2c1SC(F)(F)F [Example 490] | – | – | < 750 | > 90 | < 10 | – | –
CNC(=O)c1cc(NCC#Cc2cc3c(N[C@@H]4CCN(C)C[C@@H]4F)cccn3c2SC(F)(F)F)c2ncnn2c1 [Example 494] | – | – | < 750 | > 90 | < 10 | – | IC50 (H1299 p53 Y220C): < 750 nM
[2H]C([2H])([2H])Oc1cc(C(=O)NC)ccc1NCC#Cc1nn2c(N[C@@H]3CCN(C)C[C@@H]3F)cccc2c1SC(F)(F)F [Example 500] | – | – | < 750 | > 90 | < 10 | – | IC50 (H1299 p53 Y220C): < 750 nM
[2H]C([2H])([2H])N1CC[C@@H](Nc2cccn3c(SC(F)(F)F)c(C#CCNc4ccc(S(C)(=O)=O)cc4OC)cc23)[C@@H](F)C1 [Example 501] | – | – | – | > 90 | – | – | IC50 (H1299 p53 Y220C): < 750 nM
[2H]C([2H])([2H])Oc1cc(C(=O)NC)ccc1NCC#Cc1nc2c(N[C@@H]3CCN(C)C[C@@H]3F)cccn2c1SC(F)(F)F [Example 505, 4-{[3-(8-{[(3S,4R)-3-fluoro-1-methylpiperidin-4-yl]amino}-3-[(trifluoromethyl)sulfanyl]imidazo[1,2-a]pyridin-2-yl)prop-2-yn-1-yl]amino}-3-(2H3)methoxy-N-methylbenzamide] | – | – | – | > 90 | – | – | IC50 (H1299 p53 Y220C): < 750 nM
[2H]C([2H])([2H])Oc1ccc(C(=O)NC)cc1NCC#Cc1nc2c(N[C@@H]3CCN(C)C[C@@H]3F)cccn2c1SC(F)(F)F [Example 507] | – | – | < 750 | > 90 | < 10 | – | IC50 (H1299 p53 Y220C): < 750 nM
